Data as given in patent US20130218474A1, “Benchmarks for Normal Cell Identification” (priority 2012, published 2013).
Values joined by “and” are separate entries in the source; they are usually repeats but may differ in a detail not shown here. Identical values can stand only once. “Also recorded” adds a separate entry of the source. Like-named read-outs stand apart in the source and are kept apart here. Values belong to the compound of their own block, whether it stands above or below them.

Assays:
[1] = cited from earlier work
[2] = tested on: AML patient sample #1910-017 cells; test: SCNP arm #1: modulated signaling in AML patient cells with and without kinase inhibitors; type: cell-based, human; conditions: subject #1910-017
Description: (§1) Peripheral blood or bone marrow samples from AML patient were collected (n=9), which had been previously ficoll separated and cryopreserved. Patient characteristics are shown Table 7. One cryovial per patient was used. Samples were thawed and centrifuged over ficoll to remove dead cells and debris.
Arm #1 assessed basal and modulated signaling in the JAK/STAT, PI3K/mTor, and MEK/ERK pathways in the presence and absence of specific kinase inhibitors. Kinase inhibitors were added […]before the addition of the signaling stimulus. Signaling was induced by individual addition of stem cell factor, Flt3 ligand, G-CSF, IL-3, or thrombopoietin (TPO) for a short period of time (5-15 min). Cells were then fixed, permeabilized, and stained with a cocktail of cell surface and phospho-specific antibodies to measure signaling in multiple cell types. Signaling data is calculated in each cell type using a fold-change metric comparing each condition to its basal state: example: (stimulated^+/−inhibitor)/(unstimulated). Also, cells with an apoptotic phenotype were excluded from the signaling analysis by gating.

[3] = tested on: anti-IgM_pAKT induced PBMC; test: anti-IgM induced pAKT in PBMC; type: cell-based
[4] = tested on: PMA induced pERK in lymphocytes from PBMCs; test: PMA induced pERK in lymphocytes from PBMCs; type: cell-based
[5] = tested on: pERK in blood lymphocytes; conditions: ~1000 ng/ml plasma conc.; cited from earlier work
GM-CSF_pSTAT5 [6] = conditions: 1000 nM
GM-CSF_pSTAT5 [7] = test: cells; conditions: read-out: GM-CSF_pSTAT5 inhibition IC50
[8] = human, in vivo; cited from earlier work
[9] = tested on: AML patient myeloid cells; test: SCNP arm #2: cytotoxic and cytostatic impact of drugs on AML patient cells; type: cell-based, human; conditions: 48 hours drug culture
Description: as §1
Arm #2 asessed the cytotoxic and cytostatic impact of various drugs as single agents and in combinations (including the specific kinase inhibitors tested in arm #1). Here the cells from each donor were cultured in the presence of TPO, IL-3, SCF, and FLT3L for 2 days to drive proliferation. After 2 days the cells were then distributed into wells containing various drugs, wherein the cells were cultured for 48 hours. The cultures were fixed, permeabilized, and stained with a cocktail of antibodies to measure complete cell death, apoptosis, S/G2 phase, M-Phase, and DNA damage. These readouts were also obstained from samples cultured separately with individual growth factors (no drugs) for four days.

[10] = tested on: pAKT and pS6 on H460 cell line; conditions: cited from earlier work
[11] = tested on: tumour xenografts that have abnormal PI3K signalling; conditions: loss of PTEN function or gain-of-function PI3K mutations; cited from earlier work
xenograft model = conditions: low doses; cited from earlier work
MDA-MB-361 = conditions: read-out: inhibition of MDA-MB-361 cancer cell proliferation (IC50); cited from earlier work
[12] = tested on: tumor FDG avidity, CA-125; conditions: cited from earlier work
[13] = tested on: pS6 in paired tumor biopsies; conditions: patients treated at 80 mg and higher; cited from earlier work
[14] = tested on: pAKT levels assayed in PRP; conditions: patients treated at 80 mg and higher; cited from earlier work
A2780 = conditions: cited from earlier work
PC3 = conditions: read-out: inhibition of PC3 cancer cell proliferation (IC50); cited from earlier work
[15] = Plasma pharmacokinetics in patients or volunteers (values collected in Table 1); conditions: human, in vivo
p-S6 = conditions: 10 nM in vitro; cited from earlier work
mantle cell line (Jeko) = conditions: 10 nM in vitro; cited from earlier work
proteome activity = conditions: 10 nM; cited from earlier work
AML cell lines = conditions: read-out: IC90, proliferation of AML cell lines; cited from earlier work
[16] = tested on: Ba/F3-wt (+IL-3, proliferation) JAK2 wt; conditions: read-out: Reported activity Ba/F3-wt (+IL-3, proliferation) JAK2 wt; cited from earlier work
[17] = tested on: pAKT (same cells, same stim); test: pAKT inhibition in PBMCs (monos), GM-CSF; type: cell-based
[18] = tested on: normal PBMC (lymphoid and myeloid cells); test: DNA damage response kinetics in normal PBMC; type: cell-based, human

Compound: C[C@@H]1CCN(C(=O)CC#N)C[C@@H]1N(C)c1ncnc2[nH]ccc12 [CP690550]
T½ ([1]; human, in vivo, 30 mg): 2.6 h
effect on high basal level of p-STAT5 signaling [2]: inhibited
inhibition of IL-3 signaling [2]: complete inhibition
inhibition of TPO signaling [2]: partial inhibition

Compound: CC[C@H](Nc1ncnc2[nH]cnc12)c1nc2cccc(F)c2c(=O)n1-c1ccccc1 [CAL-101]
mean volume of distribution ([1]; human, in vivo): 57.7 L
steady-state trough plasma concentrations above the EC50 for the in vitro whole-blood assay ([1]; human, in vivo): concentrations that are >10-fold above the EC50 for the in vitro
t1/2 ([1]; human, in vivo): ~8 h
block of anti-IgM induced pAKT ([3]; 40 nM): blocked ~90%. Ref: Herman, Sarah EM et al. Blood. Jun. 3,
IC50 ([3]; anti-IgM induced pAKT, PBMC, read-out: Nodality IC50): ~10 nM

Compound: Cn1cnc2c(F)c(Nc3ccc(Br)cc3Cl)c(C(=O)NOCCO)cc21 [AZD6244]
inhibition at 1 µM ([4]; 1 μM in vitro, read-out: PMA induced pERK inhibited): 85 to 95%
IC50 ([4]; lymphocytes from PBMCs): ~100 nM
inhibition of SCF induced p-AKT [2]: no inhibition
inhibition of SCF induced p-S6 [2]: partial inhibition
inhibition of SCF-PERK [2]: complete inhibition
pERK inhibition (PD effect) [5]: 11u-post dose. PD effects of ~80% pERK inhibition can be seen at

IC50 (GM-CSF_pSTAT5 [7]): 215 nM
Compound: N#CC[C@H](C1CCCC1)n1cc(-c2ncnc3[nH]ccc23)cn1 [INCB018424]
inhibition of GM-CSF_pSTAT5 (GM-CSF_pSTAT5 [6]): Jan 2011.) 1000 nM can completely inhibit GM-CSF_pSTAT5
Cmax ([1]; 100 mg 24 h): 4.78 µM

Compound: Cn1nnc2c(C(N)=O)ncn2c1=O [Temozolomide]
T½ ([1]; human, in vivo): 1.67 h
plasma concentration (Cmax) corresponding to 200 ng/m2/day ([1]; human, in vivo): 9300 ng/mL
Cmax ([1]; read-out: plasma concentration (Cmax) corresponding to 200 ng/m2/day, human, in vivo): 47.9 µM
Adult MTD [8]: glioblastoma multiforme patients. Adult MTD = 200 ng/m2/day

Compound: CCNC(=O)c1noc(-c2cc(C(C)C)c(O)cc2O)c1-c1ccc(CN2CCOCC2)cc1 [NVP-AUY922]
drug induced apoptosis / cell death of patient myeloid cells [9]: effective at inducing apoptosis

Compound: O=C(c1cc(Cc2n[nH]c(=O)c3ccccc23)ccc1F)N1CCN(C(=O)C2CC2)CC1 [AZD2281, Olaparib]
Cmax (maximum plasma concentration) ([1]; at MTD): ~6000 ng/mL
Cmax ([1]; read-out: Cmax (maximum plasma concentration), at MTD): 13.8 µM

Compound: Nc1ncn([C@@H]2O[C@H](CO)[C@@H](O)[C@H]2O)c(=O)n1 [Azacitidine]
Cmax ([1]; human, in vivo): 1.42 to 4.72 µM

Compound: Nc1ncn([C@H]2C[C@H](O)[C@@H](CO)O2)c(=O)n1 [Decitabine]
Cmax ([1]; 15 mg/m2 IV over 3 hrs, every 8 hrs, for 3 days): 0.3 to 1.6 µM

Compound: Cn1c(=O)n(-c2ccc(C(C)(C)C#N)cc2)c2c3cc(-c4cnc5ccccc5c4)ccc3ncc21 [BEZ235]
IC50 ([10]; read-out: pAKT 1050): 10 nM
IC50 ([10]; read-out: pS6 1050): 50 nM
inhibition of SCF induced p-AKT [2]: complete inhibition
inhibition of SCF induced p-S6 [2]: partial inhibition
activity against tumour xenografts [11]: show that BEZ235 has strong anti-proliferative activity against

Compound: CC(C)(C)c1cc(NC(=O)Nc2ccc(-c3cn4c(n3)sc3cc(OCCN5CCOCC5)ccc34)cc2)no1 [AC220]
half-life ([1]; human, in vivo): AC220 half-life can be 2.5 days, exhibiting minimal peak and
effect in xenograft model (xenograft model): tumor regression in a xenograft model at low doses. Ref:

Compound: CS(=O)(=O)N1CCN(Cc2cc3nc(-c4cccc5[nH]ncc45)nc(N4CCOCC4)c3s2)CC1 [GDC-0941]
IC50 (MDA-MB-361): 720 nM
reductions in mean SUVmax (tumor FDG avidity on PET scan) ([12]; 3 patients treated at ≧100 mg): GDC-0941 with reductions (≧30% in mean SUVmax) in tumor
decrease in CA-125 ([12]; ovarian cancer patient): FDG avidity observed on PET scan and an ~80% decrease in CA-
decreases in pS6 staining in paired tumor biopsies [13]: Decreases in pS6 staining of >50% can occur in paired tumor
mean Cmax and AUCinf with dose ([1]; human, in vivo): display dose-proportional increases in mean Cmax and AUCinf.
decreases in pAKT levels assayed in PRP [14]: biopsies in addition to decreases of >90% in pAKT levels assayed
IC50 (A2780): 140 nM
inhibition of SCF induced p-AKT [2]: partial inhibition
inhibition of SCF induced p-S6 [2]: partial inhibition
IC50 (PC3): 280 nM

assumed trough [15]: 1000 ng/ml and 2 μM
Compound: Cc1ccc(NC(=O)c2ccc(CN3CCN(C)CC3)cc2)cc1Nc1nccc(-c2cccnc2)n1 [Imatinib]

Compound: CO[C@H]1C[C@@H]2CC[C@@H](C)[C@@](O)(O2)C(=O)C(=O)N2CCCC[C@H]2C(=O)O[C@H]([C@H](C)C[C@@H]2CC[C@@H](OCCO)[C@H](OC)C2)CC(=O)[C@H](C)/C=C(\C)[C@@H](O)[C@@H](OC)C(=O)[C@H](C)C[C@H](C)/C=C/C=C/C=C/1C [Everolimus]
inhibition of p-S6 (p-S6): inhibit p-S6 completely
Cmax ([1]; 10 mg/d): 61 ng/m1 and 63 nM
trough ([1]; 10 mg/d): 17 ng/m1 and 17.7 nM
trough ([1]; 50 mg/wk): lng/ml (~1 nM). [J Clin Oncol 26: 1603-1610. 2008]. A 10 nM dose
effect on proliferation of mantle cell line (Jeko) (mantle cell line (Jeko)): inhibit proliferation

Compound: CC(C)C[C@H](NC(=O)[C@H](Cc1ccccc1)NC(=O)c1cnccn1)B(O)O [Bortezomib]
Cmax (prescribing info) ([1]; human, in vivo): 112 ng/m1
Cmax ([1]; read-out: Cmax (prescribing info), human, in vivo): 0.291 µM
drug induced apoptosis / cell death of patient myeloid cells [9]: effective at inducing apoptosis; also recorded: induced considerable levels of cell death and cytostasis
effect on proteome activity (proteome activity): blocks proteome activity [BLOOD, 16 DECEMBER 2010
IC90 (AML cell lines): 10 to 50 nM

Compound: Nc1ccn([C@@H]2O[C@H](CO)[C@@H](O)[C@@H]2O)c(=O)n1 [AraC, Cytarabine]
drug induced apoptosis / cell death of patient myeloid cells [9]: resisted apoptosis

IC50 [17]: 129 nM
IC90 [17]: ~1000 nM
Compound: N#CCNC(=O)c1ccc(-c2ccnc(Nc3ccc(N4CCOCC4)cc3)n2)cc1 [CYT387]
IC50 [16]: 1420 nM

Compound: gemtuzumab ozogamicin [Mylotarg]
kinetics in Myeloid versus Lymphoid cells [18]: faster kinetics in Myeloid compared to Lymphoid cells
time by which induction of p-ATM, p-Chk2 is seen ([18]; Myeloid cells): ≤ 2 h
